Data taken from publication PMC11926788, “Effect of SSR504734, a Selective Glycine Transporter Type 1 Inhibitor, on Seizure Thresholds, Neurotransmitter Levels, and Inflammatory Markers in Mice” (ACS Chemical Neuroscience, 2025).
Where a name gives a salt, the structure may show the parent alone.

What was measured:
[1] = tested on: inflammatory markers in liver homogenates; assay: Inflammatory markers in liver (ELISA); format: in vivo, mice; details: 14-day administration, 30 mg/kg i.p.
Protocol: Samples of liver tissue were homogenized with a protease inhibitor solution (0.4 M NaCl, 0.05% Tween 20, 0.5% bovine serum albumin, 0.1 mM phenylmethylsulfonylfluoride, 0.1 mM benzethonium chloride, 10 mM EDTA, and 10 μg/mL aprotinin). Homogenates were centrifuged at 12,000 rpm at 4 °C, and supernatant fluids were collected and stored at −80 °C until analysis. The entire procedure was described by Zhao et al.[29]
ELISA kits were used to determine IL-1-β, IL-6, IL-10, TNF-α, and IFN-γ (EIAAB Science INC, Wuhan, Hubei, China, nos. E0563m, E0079m, E0056m, E0049m, E0133m, E0753m) and IL-18 (Biorbyt Ltd., Cambridge, United Kingdom, no. orb437211) in the liver homogenates and serum. All assays were performed according to the producer’s instructions. All samples were tested in triplicate.

[2] = PAMPA (Gentest Precoated PAMPA Plate System); format: in vitro ADME; details: ± SD
Protocol: (§1) A series of in vitro ADME-Tox tests were performed for SSR504734 in order to estimate its drugability. The ADME-Tox parameters including permeability, plasma protein binding, metabolic stability, neurotoxicity, and hepatotoxicity were carried out as described previously.[31],[32] The ability of SSR504734 to penetrate through the biological membrane by passive diffusion was estimated by the Gentest Precoated PAMPA Plate System (Corning, Tewksbury, MA) and expressed as the permeability coefficient (Pe). The protein binding analysis was performed by using the commercial TRANSIL^XL PPB test, which mimics in vitro physiological plasma conditions where human serum albumin (HAS) and alpha-1-acid glycoprotein AGP are present in a 24:1 ratio. The human metabolism of SSR504734 was studied using human liver microsomes (HLMs) provided by Sigma-Aldrich. The hepatotoxicity and neurotoxicity were estimated in cellular models with the use of hepatoma HepG2 and neuroblastoma SH-SY5Y cell lines to perform the preliminary safety tests. The cells were incubated with SSR504734 at the concentration range of 0.1–100 μM. 1 μM cytostatic drug doxorubicin (DX) was used as the reference.

hepatoma HepG2 cells = assay: Hepatotoxicity, HepG2 cell viability; format: cell-based
Protocol: as §1
Figure 8 Effect of cytostatic drug doxorubicin (DX) and SSR504734 on (A) hepatoma HepG2 and (B) neuroblastoma SH-SY5Y cell lines viability after 72 h of incubation at 37 °C, 5% CO2. Data are expressed as means ± SD. Statistical analysis: ****p < 0.0001 vs negative control −1% DMSO in growth media (one-way ANOVA, followed by Dunnett’s post hoc test).
Figure S8. The effect of cytostatic drug doxorubicin and SSR504734 on (A) hepatoma
HepG2 and (B) neuroblastoma SH-SY5Y cell line viability after 72 h of incubation at 37 °C,
5% CO2. The IC50 values were calculated by GraphPad Prism 8.0.
(1 picture or pasted object on this page, not shown here)

GlyT1 = details: in vitro assay; cited from earlier work

O=C(NC(c1ccccc1)C1CCCCN1)c1cccc(C(F)(F)F)c1Cl [SSR504734, 2-chloro-N-[(S)-phenyl[(2S)-piperidin-2-yl]methyl]-3-trifluoromethyl benzamide monohydrochloride]
level of inflammatory markers in liver samples [1]: No statistically significant changes
Papp ([2]; PAMPA, read-out: PAMPA Pe): 14.8 ± 1.49 ×10⁻⁶ cm/s
PAMPA Pe [2]: 14.80 10^–6 cm/s
HepG2 cell viability (hepatoma HepG2 cells; 25 μM and higher concentrations, 72 h): significant decrease
IC50 (hepatoma HepG2 cells; Homo sapiens, HepG2, 72 h of incubation): 14.8 µM
hepatotoxic properties (HepG2 viability) (hepatoma HepG2 cells; concentration range of 1–10 μM, 72 h): did not exhibit hepatotoxic properties
IC50 for GlyT1 inhibition (GlyT1): 7.8 (±2.6) ng/mL
